The target in test [1] is T1, HMGB3 (Arabidopsis thaliana, UniProt P93047).
T1 construct: ORF in pET30 Xa/LIC, 6xHis-tagged, E. coli BL21, Ni-NTA and Superdex 200 purified; ABRC ORF clone
T1 sequence (P93047 1-141): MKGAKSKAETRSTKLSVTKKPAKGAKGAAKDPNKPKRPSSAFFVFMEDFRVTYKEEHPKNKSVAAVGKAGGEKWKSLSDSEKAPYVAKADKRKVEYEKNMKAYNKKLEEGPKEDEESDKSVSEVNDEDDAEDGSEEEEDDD
The test is described as follows: photoaffinity crosslinking, immunoblot with anti-SA antibody. Type of test: binding. To be noted: 50 uM 4AzSA, PBS, on ice, 254 nm UV 30 mJ; covalent. Background: Immunoblotting shows a protein as a band on a membrane.

Test [2] addresses T1, HMGB3. In words: SPR competition on 3AESA chip; competition of 4AzSA photoaffinity crosslinking. It is filed as binding. To be noted: 1 uM HMGB3 in SPR; 50 uM 4AzSA in PBS for crosslinking; competitive.

The source of these data is paper PMC4805298, “Activation of Plant Innate Immunity by Extracellular High Mobility Group Box 3 and Its Inhibition by Salicylic Acid” (PLoS Pathogens, 2016).

For the compound `[N-]=[N+]=Nc1ccc(C(=O)O)c(O)c1` [4AzSA, 4-azido SA], the “photoaffinity crosslinking, immunoblot with anti-SA antibody” value on HMGB3 [1] was “HMGB3 was effectively crosslinked to 4AzSA by UV irradiation”.
With `O=C(O)c1ccccc1O` [SA, salicylic acid], at HMGB3 [2], the “SPR competition on 3AESA chip; competition of 4AzSA photoaffinity crosslinking” value is “this binding was competed in the presence of increasing concentrations of SA”.
